# Tests used:
# [1] = target: T1, human CRHR2 (Homo sapiens, UniProt Q13324); experiment: Radioligand binding, membranes of SK-N-MC cells transfected with human CRHR2, [125I]-anti-sauvagine-30
# T1 construct: expressed in transfected cells
# T1 sequence (Q13324 1-411): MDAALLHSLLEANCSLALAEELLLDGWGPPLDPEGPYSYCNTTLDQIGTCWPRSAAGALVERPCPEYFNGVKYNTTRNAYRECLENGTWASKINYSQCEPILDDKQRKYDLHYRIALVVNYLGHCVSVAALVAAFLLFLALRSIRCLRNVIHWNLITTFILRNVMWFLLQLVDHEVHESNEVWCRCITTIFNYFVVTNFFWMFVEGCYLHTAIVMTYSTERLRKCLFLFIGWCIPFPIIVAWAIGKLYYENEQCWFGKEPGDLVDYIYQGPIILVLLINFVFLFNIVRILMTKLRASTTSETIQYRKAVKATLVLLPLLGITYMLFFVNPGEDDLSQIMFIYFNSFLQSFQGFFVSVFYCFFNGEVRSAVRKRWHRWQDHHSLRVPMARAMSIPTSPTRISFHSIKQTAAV
# Description: The binding profile of h-SCP (SEQ ID NO:1) at CRHR2 was determined in radioligand binding studies in a membrane preparation of SK-N-MC cells stably transfected with human CRHR2 using [^125I]-anti-sauvagine-30 as the radiolabel. […] The solution was then homogenized with a Polytron tissue grinder at a setting of 10 and 7×3 s (Brinkmann Instruments, Westbury, N.Y.). The homogenate was centrifuged at 4° Celsius at 800×g for 5 min with the pellet being discarded. The supernatant was re-centrifuged at 26,892×g for 25 min at 4° Celsius with the final pellet being re-suspended in assay buffer. All binding assays were conducted in 96-well Multiscreen GF/B filter plates (Millipore, Billericay, Mass., U.S.A.) that were pre-soaked in assay buffer with 0.3% PEI for 1 hour. […] The bound radioactivity was separated by filtration using a Multiscreen Resist manifold (Millipore Corp., Billerica, Mass., U.S.A). The filters were washed three times with ice-cold PBS at pH 7.5 and radioactivity retained on the filters was quantified by its liquid scintillation measured by a TopCount counter (Packard BioScience, Boston, Mass., U.S.A). All experiments were performed in triplicate. Data from individual competition curves were expressed as the percentage of specific [^125I]-anti-sauvagine-30 or)[^125I]-([…])-sauvagine binding (B) within each experiment.
# [2] = target: T1, human CRHR2; experiment: cAMP assay in h-CRHR2 transfected SK-N-MC cells; assay type: cell-based
# Outline: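 Intracellular cAMP was read by competition with [125I]-cAMP for an anti-cAMP antibody after HCl lysis of human CRHR2-transfected SK-N-MC cells. Cells had been exposed to peptide, 1 pM to 10 μM, for 60 min at 37 °C in IBMX (10 μM) buffer. A50 and pA50 came from Hill fits; Log DR was computed against h-SCP within each batch.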
# [3] = target: T2, CRHR1 (Homo sapiens, UniProt P34998); experiment: Radioligand binding CRHR1 assay, [125I]-(Tyr0)-sauvagine; design: expressed in transfected cells; host or cells: cell membranes
# T2 sequence (P34998 24-415): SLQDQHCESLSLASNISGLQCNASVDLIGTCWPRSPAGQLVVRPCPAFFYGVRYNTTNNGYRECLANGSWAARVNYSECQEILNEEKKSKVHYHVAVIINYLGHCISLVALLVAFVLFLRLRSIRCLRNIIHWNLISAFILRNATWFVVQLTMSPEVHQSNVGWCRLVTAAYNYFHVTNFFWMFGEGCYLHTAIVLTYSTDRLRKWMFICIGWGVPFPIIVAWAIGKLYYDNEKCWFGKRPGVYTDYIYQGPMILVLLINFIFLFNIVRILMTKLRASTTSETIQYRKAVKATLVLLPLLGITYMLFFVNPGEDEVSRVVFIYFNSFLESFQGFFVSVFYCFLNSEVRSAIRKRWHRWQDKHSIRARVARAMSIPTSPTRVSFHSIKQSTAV
# Description: The solution was then homogenized with a Polytron tissue grinder at a setting of 10 and 7×3 s (Brinkmann Instruments, Westbury, N.Y.). The homogenate was centrifuged at 4° Celsius at 800×g for 5 min with the pellet being discarded. […] All binding assays were conducted in 96-well Multiscreen GF/B filter plates (Millipore, Billericay, Mass., U.S.A.) that were pre-soaked in assay buffer with 0.3% PEI for 1 hour. […] The bound radioactivity was separated by filtration using a Multiscreen Resist manifold (Millipore Corp., Billerica, Mass., U.S.A). The filters were washed three times with ice-cold PBS at pH 7.5 and radioactivity retained on the filters was quantified by its liquid scintillation measured by a TopCount counter (Packard BioScience, Boston, Mass., U.S.A). All experiments were performed in triplicate.
# [4] = Table 15, slope of competition curve
compound,measurement,setting,value
"CC[C@H](C)[C@H](NC(=O)[C@@H](NC(=O)[C@H](CC(=O)O)NC(=O)[C@H](CC(C)C)NC(=O)[C@H](CC(C)C)NC(=O)[C@H](CC(C)C)NC(=O)[C@H](CCCNC(=N)N)NC(=O)[C@H](CC(N)=O)NC(=O)[C@H](CC(N)=O)NC(=O)[C@H](C)NC(=O)[C@H](C)NC(=O)[C@H](CCC(N)=O)NC(=O)[C@H](CCC(N)=O)NC(=O)[C@H](CCCCN)NC(=O)[C@H](CCC(=O)O)NC(=O)[C@H](CCCCN)NC(=O)[C@H](CCC(=O)O)NC(=O)[C@H](CCC(N)=O)NC(=O)[C@H](CCCCN)NC(=O)[C@H](CCC(=O)O)NC(=O)[C@@H](NC(=O)[C@H](CCC(=O)O)NC(=O)[C@@H](NC(=O)[C@H](CCSC)NC(=O)[C@H](CCCCN)NC(=O)[C@H](CCCNC(=N)N)NC(=O)[C@H](CC(C)C)NC(=O)[C@H](CC(C)C)NC(=O)[C@H](Cc1c[nH]cn1)NC(=O)[C@H](N)Cc1ccccc1)[C@@H](C)CC)[C@@H](C)CC)[C@@H](C)O)C(N)=O [SEQ ID NO: 118, FHLLRKMIEIEKQEKEKQQAANNRLLLDTI-NH2]",Ki,[1],16.6 nM
same,CRHR2 nH,[1]; [4],1.15 ± 0.12
same,Kb,[2],15.1 nM
same,Ki,[3],1550 nM
same,CRHR1 nH,[3]; [4],1.00 ± 0.49

# Source: patent publication US10040838B2, “CRHR2 peptide agonists and uses thereof” (JANSSEN PHARMACEUTICA NV, priority 2008, dated 2018)
